Assay results as given in the supplement of paper PMC10307832.

These cell lines were tested with CC1=C(N=C(N=C1N)[C@H](CC(=O)N)NC[C@@H](C(=O)N)N)C(=O)N[C@@H]([C@H](C2=CN=CN2)OC3C(C(C(C(O3)CO)O)O)OC4C(C(C(C(O4)CO)O)OC(=O)N)O)C(=O)N[C@H](C)[C@H]([C@H](C)C(=O)N[C@@H]([C@@H](C)O)C(=O)NCCC5=NC(=CS5)C6=NC(=CS6)C(=O)NCCC[S+](C)C)O [Bleomycin] + COc1cc2c(Oc3ccc(NC(=O)C4(C(=O)Nc5ccc(F)cc5)CC4)cc3F)ccnc2cc1OCCCN1CCOCC1 [Foretinib] (partner 0.25 µM) (assay: relative viability (nuclei count vs DMSO), 5 days (fraction); higher = more cells survive). Conditions: first compound 1 µM; main component drawn.
Outline: (§1)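 A single step with final 0.05% Triton X-100, 1% formaldehyde and 1 ug/ml Hoechst fixed the cells and stained nuclei 5 days after treatment. Lung cancer cell lines in 1536-well plates had been treated by pin tool the day after seeding with one drug alone or a fixed anchor-drug dose plus five library-drug doses (not always all listed) in √10 steps, and nuclei were counted on 4× images. Relative viability is the ratio of nuclei in treated wells to nuclei in vehicle wells, taken as the median of duplicate plates.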

Row | Cell Line | relative viability
1 | NCI-H23 | 0.218

Each cell line was assayed with CC1=C(N=C(N=C1N)[C@H](CC(=O)N)NC[C@@H](C(=O)N)N)C(=O)N[C@@H]([C@H](C2=CN=CN2)OC3C(C(C(C(O3)CO)O)O)OC4C(C(C(C(O4)CO)O)OC(=O)N)O)C(=O)N[C@H](C)[C@H]([C@H](C)C(=O)N[C@@H]([C@@H](C)O)C(=O)NCCC5=NC(=CS5)C6=NC(=CS6)C(=O)NCCC[S+](C)C)O [Bleomycin] + Cc1cc(Nc2cc(N3CCN(C)CC3)nc(Sc3ccc(NC(=O)C4CC4)cc3)n2)n[nH]1 [Tozasertib] (partner 0.1 µM) in the same assay as above. Conditions: first compound 0.01 µM; main component drawn.
Outline: as §1

Row | Cell Line | relative viability
2 | LK-2 | 0.178
3 | NCI-H2126 | 0.736
4 | H3255 | 0.543
5 | LOU-NH91 | 0.504
6 | NCI-H2170 | 0.627
7 | NCI-H3122 | 0.337
8 | HOP-62 | 0.229
9 | LU99A | 0.27
10 | BEN | 0.487
11 | HARA | 0.0994
12 | HCC-78 | 0.335
13 | NCI-H441 | 0.53
14 | LCLC-97TM1 | 0.176
15 | A-427 | 0.201
16 | NCI-H460 | 0.0837
17 | NCI-H727 | 0.761
18 | NCI-H1734 | 0.222
19 | NCI-H2405 | 0.703
20 | NCI-H1395 | 0.646
21 | 201T | 0.874
22 | NCI-H1915 | 0.317
23 | HCC-827 | 0.419
24 | LXF-289 | 0.179
25 | NCI-H2347 | 0.451
26 | NCI-H650 | 0.584
27 | CAL-12T | 0.23
28 | NCI-H1651 | 0.529
29 | EPLC-272H | 0.232
30 | NCI-H23 | 0.208

Same assay, conditions: first compound 0.03162 µM; main component drawn

Row | Cell Line | relative viability
31 | LK-2 | 0.159
32 | NCI-H2126 | 0.865
33 | H3255 | 0.489
34 | LOU-NH91 | 0.289
35 | NCI-H2170 | 0.826
36 | NCI-H3122 | 0.281
37 | HOP-62 | 0.208
38 | LU99A | 0.25
39 | BEN | 0.519
40 | HARA | 0.118
41 | HCC-78 | 0.356
42 | NCI-H441 | 0.611
43 | LCLC-97TM1 | 0.217
44 | A-427 | 0.168
45 | NCI-H460 | 0.101
46 | NCI-H727 | 0.578
47 | NCI-H1734 | 0.223
48 | NCI-H2405 | 0.758
49 | NCI-H1395 | 0.695
50 | 201T | 0.943
51 | NCI-H1915 | 0.347
52 | HCC-827 | 0.453
53 | LXF-289 | 0.193
54 | NCI-H2347 | 0.44
55 | NCI-H650 | 0.627
56 | CAL-12T | 0.249
57 | NCI-H1651 | 0.455
58 | EPLC-272H | 0.243
59 | NCI-H23 | 0.268

Same assay, conditions: first compound 0.1 µM; main component drawn

Row | Cell Line | relative viability
60 | LK-2 | 0.179
61 | NCI-H2126 | 0.861
62 | H3255 | 0.622
63 | LOU-NH91 | 0.404
64 | NCI-H2170 | 0.735
65 | NCI-H3122 | 0.324
66 | HOP-62 | 0.194
67 | LU99A | 0.216
68 | BEN | 0.452
69 | HARA | 0.107
70 | HCC-78 | 0.357
71 | NCI-H441 | 0.471
72 | LCLC-97TM1 | 0.218
73 | A-427 | 0.223
74 | NCI-H460 | 0.153
75 | NCI-H727 | 0.732
76 | NCI-H1734 | 0.279
77 | NCI-H2405 | 0.682
78 | NCI-H1395 | 0.619
79 | 201T | 0.894
80 | NCI-H1915 | 0.229
81 | HCC-827 | 0.332
82 | LXF-289 | 0.181
83 | NCI-H2347 | 0.52
84 | NCI-H650 | 0.57
85 | CAL-12T | 0.179
86 | NCI-H1651 | 0.303
87 | EPLC-272H | 0.191
88 | NCI-H23 | 0.217

Same assay, conditions: first compound 0.3162 µM; main component drawn

Row | Cell Line | relative viability
89 | LK-2 | 0.179
90 | NCI-H2126 | 0.421
91 | H3255 | 0.427
92 | LOU-NH91 | 0.323
93 | NCI-H2170 | 0.549
94 | NCI-H3122 | 0.177
95 | HOP-62 | 0.144
96 | LU99A | 0.193
97 | BEN | 0.431
98 | HARA | 0.1
99 | HCC-78 | 0.269
100 | NCI-H441 | 0.332
101 | LCLC-97TM1 | 0.158
102 | A-427 | 0.126
103 | NCI-H460 | 0.0462
104 | NCI-H1734 | 0.199
105 | NCI-H2405 | 0.475
106 | NCI-H1395 | 0.407
107 | 201T | 0.642
108 | NCI-H1915 | 0.162
109 | HCC-827 | 0.311
110 | LXF-289 | 0.0822
111 | NCI-H2347 | 0.221
112 | NCI-H650 | 0.231
113 | CAL-12T | 0.179
114 | NCI-H1651 | 0.156
115 | EPLC-272H | 0.127
116 | NCI-H23 | 0.161

Same assay, conditions: first compound 1 µM; main component drawn

Row | Cell Line | relative viability
117 | LK-2 | 0.177
118 | NCI-H2126 | 0.32
119 | H3255 | 0.278
120 | LOU-NH91 | 0.274
121 | NCI-H2170 | 0.372
122 | NCI-H3122 | 0.166
123 | HOP-62 | 0.102
124 | LU99A | 0.147
125 | BEN | 0.475
126 | HARA | 0.081
127 | HCC-78 | 0.355
128 | NCI-H441 | 0.275
129 | LCLC-97TM1 | 0.195
130 | A-427 | 0.159
131 | NCI-H460 | 0.0258
132 | NCI-H727 | 0.596
133 | NCI-H1734 | 0.15
134 | NCI-H2405 | 0.398
135 | NCI-H1395 | 0.404
136 | 201T | 0.548
137 | NCI-H1915 | 0.133
138 | HCC-827 | 0.205
139 | LXF-289 | 0.0688
140 | NCI-H2347 | 0.413
141 | NCI-H650 | 0.188
142 | CAL-12T | 0.208
143 | NCI-H1651 | 0.105
144 | EPLC-272H | 0.173
